Like-named read-outs stand apart in the source and are kept apart here. Marks after values point to notes of the source that are not given here. Where a SMILES comes first, the peptide text is derived from it. Bridges are numbered along the chain shown (N, C = ends). [ ]: non-standard residue; d: D form. R8 = C=CCCCCCC[C@@](C)(N)C(=O)O; S5 = C=CCCC[C@](C)(N)C(=O)O
Assays:
[1] = test system: EGFR T790M mutated H1975 lung adenocarcinoma cells; test: Cell viability assay (MTT), H1975; assay type: cell-based; conditions: H1975 (HER1 T790M), 10 µM, 72 h
Protocol: 1000–3000 cells were plated in 96-well plates (Falcon; Corning, NY) and allowed to adhere for 24–48 h prior to therapeutic introduction. Compounds were added and incubated on cells for 3 days in serum-containing media, followed by 2 h treatment with MTT (Sigma M5655) with the resulting formazan solubilized in DMSO. Absorbance was read at 540 nm by plate reader (uQuant, Bio-Tek Instruments). P-values were calculated from a one-way ANOVA.
Fig. 3 SAH5-EJ1 inhibits growth and prolongs survival in PDX models of lung cancer. a, b Cell viability assays performed in A549 or EGFR T790M mutated H1975 lung adenocarcinoma cells over 3 days comparing treatment with Sapitinib (blue lines) to SAH5-EJ1 (red lines). Solid lines represent 24 h; dashed lines represent 72 h. Data shown represent mean ± percent difference of assays performed in quadruplicate. c Reduction in tumor burden in Erlotinib-resistant lung cancer PDX mouse model TM00784 with various doses of intravenous SAH5-EJ1. Control represents water as a vehicle control. *p < 0.05 (Control vs 1 µg/g); **p < 0.01 (Control vs 1 µg/g and vs 10 µg/g). d Kaplan–Meier curve of lung PDX mouse model treated with control (blue line) or either 1 or 10 µg/g SAH5-EJ1 (green line and red line, respectively). Data shown represent mean. N = 6 for all groups

[2] = 28-day toxicity study: clinical chemistry; assay type: in vivo, CD-1 mice; conditions: day 29, mean ± SD
Protocol: (§1) Toxicology was performed by IITRI. The study was conducted in compliance with the US Food and Drug Administration (FDA) good laboratory practice (GLP) Regulations (Code of Federal Regulations Title 21 Part 58) to evaluate the toxicokinetics, local tolerability, immunogenicity, and potential toxicity of SAH5-EJ1 following three times per week intravenous (IV) dosing for 28 days in mice. Male and female CD-1 IGS [Crl:CD1(ICR)] mice (135 per sex) were received from Wilmington, MA-based Charles River Laboratories, Inc.’s Kingston facility (Stone Ridge, NY).

[3] = Plasma concentration after tail-vein injection (toxicokinetics); assay type: in vivo, CD-1 mice; conditions: for level at 0.5 h: day 1, 0.5 h; for level at 0.5 h / level at 1 h: average ± SD, read-out: SAH-EJ1 concentration in plasma, average;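 on SAH-EJ1 concentration in plasma, average: blood sampled on day 1 after the tail-vein injection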
Protocol: as §1

## CC[C@H](C)[C@H](NC(=O)[C@H](Cc1c[nH]cn1)NC(=O)[C@H](CCCNC(=N)N)NC(=O)[C@H](CCCNC(=N)N)NC(=O)[C@H](CCCNC(=N)N)NC(=O)[C@H](CCSC)NC(=O)[C@H](Cc1ccccc1)NC(=O)[C@H](C)NC(=O)[C@H](CCCNC(=N)N)NC(=O)[C@H](C)NC(=O)[C@H](CCC(N)=O)NC(=O)[C@H](CCCNC(=N)N)NC(=O)[C@H](C)NC(=O)[C@H](C)NC(=O)[C@H](C)NC(=O)[C@H](CCCNC(=N)N)NC(=O)[C@H](C)NC(=O)[C@@H](N)Cc1ccc(O)cc1)C(=O)N[C@H](C(=O)N[C@@H](CCCNC(=N)N)C(=O)N[C@@H](CCCCN)C(=O)N[C@@H](CCCNC(=N)N)C(=O)N[C@]1(C)CCCCCCC=CCCC[C@@](C)(C(=O)N[C@@H](CCCNC(=N)N)C(=O)N[C@@H](CCC(=O)O)C(N)=O)NC(=O)[C@H](CCC(N)=O)NC(=O)[C@H](CC(C)C)NC(=O)[C@H](CC(C)C)NC(=O)[C@H](CCCNC(=N)N)NC(=O)[C@H](CCCNC(=N)N)NC(=O)[C@H](CC(C)C)NC1=O)C(C)C [SAH5-EJ1] (H-YARAAARQARAFMRRRHIVRKR[R8]LRRLLQ[S5]RE-NH2; staple 23-30)
[1]
  cell death: 100%
[2]; female, 5 mg/kg, N = 5
  ALP: 88 ± 33.2 IU/L
  ALT: 79 ± 35.0 IU/L
  AST: 80 ± 8.3^a IU/L
  BUN: 19 ± 2.2 mg/dL
  TBIL: 0.2 ± 0.05 mg/dL
[2]; female, 10 mg/kg, N = 5
  ALP: 70 ± 48.4 IU/L
  ALT: 61 ± 18.5 IU/L
  AST: 83 ± 19.0 IU/L
  BUN: 19 ± 3.0 mg/dL
  TBIL: 0.1 ± 0.05 mg/dL
[2]; female, 15 mg/kg, N = 4
  ALP: 62 ± 18.4 IU/L
  ALT: 90 ± 27.2 IU/L
  AST: 93 ± 12.5 IU/L
  BUN: 22 ± 2.5 mg/dL
  TBIL: 0.1 ± 0^b mg/dL
[2]; male, 5 mg/kg, N = 4
  ALP: 68 ± 13.8 IU/L
  ALT: 124 ± 71.5 IU/L
  AST: 92 ± 28.6 IU/L
  BUN: 26 ± 2.2 mg/dL
  TBIL: 0.2 ± 0.05 mg/dL
[2]; male, 10 mg/kg, N = 5
  ALP: 73 ± 19.7 IU/L
  ALT: 96 ± 28.3 IU/L
  AST: 83 ± 23.6 IU/L
  BUN: 31 ± 7.3 mg/dL
  TBIL: 0.2 ± 0.04 mg/dL
[2]; male, 15 mg/kg, N = 4
  ALP: 58 ± 10.5 IU/L
  ALT: 67 ± 32.3 IU/L
  AST: 63 ± 13.5 IU/L
  BUN: 23 ± 2.9 mg/dL
  TBIL: 0.2 ± 0.05 mg/dL
[3]; CD-1, mouse, plasma, female, 10 mg/kg IV
  level at 0.5 h: 562 ± 47 ng/mL
[3]; CD-1, mouse, plasma, female, 10 mg/kg IV, day 1, 1 h
  level at 1 h: 542 ± 33 ng/mL
[3]; CD-1, mouse, plasma, female, 15 mg/kg IV
  level at 0.5 h: 554 ± 64 ng/mL
[3]; CD-1, mouse, plasma, female, 15 mg/kg IV, day 1, 1 h
  level at 1 h: 569 ± 27 ng/mL
[3]; CD-1, mouse, plasma, male, 10 mg/kg IV
  level at 0.5 h: 638 ± 110 ng/mL
[3]; CD-1, mouse, plasma, male, 10 mg/kg IV, day 1, 1 h
  level at 1 h: 665 ± 150 ng/mL
[3]; CD-1 IGS [Crl:CD1(ICR)], mouse, plasma, female, 5 mg/kg IV
  level at 0.5 h: 569 ± 19 ng/mL
[3]; CD-1 IGS [Crl:CD1(ICR)], mouse, plasma, female, 5 mg/kg IV, day 1, 1 h
  level at 1 h: 529 ± 30 ng/mL
[3]; CD-1 IGS [Crl:CD1(ICR)], mouse, plasma, male, 5 mg/kg IV
  level at 0.5 h: 1020 ± 350 ng/mL
[3]; CD-1 IGS [Crl:CD1(ICR)], mouse, plasma, male, 5 mg/kg IV, day 1, 1 h
  level at 1 h: 576 ± 39 ng/mL
[3]; CD-1 IGS [Crl:CD1(ICR)], mouse, plasma, male, 15 mg/kg IV
  level at 0.5 h: 901 ± 160 ng/mL
[3]; CD-1 IGS [Crl:CD1(ICR)], mouse, plasma, male, 15 mg/kg IV, day 1, 1 h
  level at 1 h: 657 ± 37 ng/mL
[3]; CD-1 IGS [Crl:CD1(ICR)], plasma, male, 15 mg/kg IV, day 1, 2 h, mouse 2 of 3, read-out: SAH-EJ1 concentration in plasma
  level at 2 h: 551 ng/mL
[3]; female mice, highest body weight dosage
  time by which peptide was not detectable in plasma: ≤ 2 h
[3]; female, 5 mg/kg IV, day 1, 1 h, mouse 1 of 3
  SAH-EJ1 concentration in plasma: BQL (BQL represents below quantifiable limits (0.5 µg/mL))
[3]; female, 5 mg/kg IV, day 1, 2 h, mouse 1 of 3
  SAH-EJ1 concentration in plasma: BQL (BQL represents below quantifiable limits (0.5 µg/mL))
[3]; female, 5 mg/kg IV, day 1, 2 h, mouse 2 of 3
  SAH-EJ1 concentration in plasma: BQL (BQL represents below quantifiable limits (0.5 µg/mL))
[3]; female, 5 mg/kg IV, day 1, 2 h, mouse 3 of 3
  SAH-EJ1 concentration in plasma: BQL (BQL represents below quantifiable limits (0.5 µg/mL))
[3]; female, 5 mg/kg IV, day 1, 4 h, mouse 1 of 3
  SAH-EJ1 concentration in plasma: BQL (BQL represents below quantifiable limits (0.5 µg/mL))
[3]; female, 5 mg/kg IV, day 1, 4 h, mouse 2 of 3
  SAH-EJ1 concentration in plasma: BQL (BQL represents below quantifiable limits (0.5 µg/mL))
[3]; female, 5 mg/kg IV, day 1, 4 h, mouse 3 of 3
  SAH-EJ1 concentration in plasma: BQL (BQL represents below quantifiable limits (0.5 µg/mL))
[3]; female, 5 mg/kg IV, day 1, 8 h, mouse 1 of 3
  SAH-EJ1 concentration in plasma: BQL (BQL represents below quantifiable limits (0.5 µg/mL))
[3]; female, 5 mg/kg IV, day 1, 8 h, mouse 2 of 3
  SAH-EJ1 concentration in plasma: BQL (BQL represents below quantifiable limits (0.5 µg/mL))
[3]; female, 5 mg/kg IV, day 1, 8 h, mouse 3 of 3
  SAH-EJ1 concentration in plasma: BQL (BQL represents below quantifiable limits (0.5 µg/mL))
[3]; female, 5 mg/kg IV, day 1, 24 h, mouse 1 of 3
  SAH-EJ1 concentration in plasma: BQL (BQL represents below quantifiable limits (0.5 µg/mL))
[3]; female, 5 mg/kg IV, day 1, 24 h, mouse 2 of 3
  SAH-EJ1 concentration in plasma: BQL (BQL represents below quantifiable limits (0.5 µg/mL))
[3]; female, 5 mg/kg IV, day 1, 24 h, mouse 3 of 3
  SAH-EJ1 concentration in plasma: BQL (BQL represents below quantifiable limits (0.5 µg/mL))
[3]; female, 10 mg/kg IV, day 1, 1 h, mouse 2 of 3
  SAH-EJ1 concentration in plasma: BQL (BQL represents below quantifiable limits (0.5 µg/mL))
[3]; female, 10 mg/kg IV, day 1, 2 h, mouse 1 of 3
  SAH-EJ1 concentration in plasma: BQL (BQL represents below quantifiable limits (0.5 µg/mL))
[3]; female, 10 mg/kg IV, day 1, 2 h, mouse 2 of 3
  SAH-EJ1 concentration in plasma: BQL (BQL represents below quantifiable limits (0.5 µg/mL))
